Measurements from the NIST ThermoML archive (doi:10.1016/j.fluid.2012.08.002).

Test: xn = mol fraction of the nth substance listed
Conditions: 101 kPa, Liquid; for speed of sound: Sing-around technique in a fixed-path interferometer; for mass density: Vibrating tube method

CCCCCCn1cc[n+](C)c1.F[B-](F)(F)F [1-hexyl-3-methylimidazolium tetrafluoroborate] + COCCO
Conditions	mass density [kg/m3]	speed of sound [m/s]
288.15 K, x1 = 0.053	996.474	1409.6
288.15 K, x1 = 0.1088	1021	1431.9
288.15 K, x1 = 0.2016	1052.83	1457.6
288.15 K, x1 = 0.3088	1077.88	1478.5
288.15 K, x1 = 0.4106	1093.47	1491.7
288.15 K, x1 = 0.5023	1103.61	1503.4
288.15 K, x1 = 0.5962	1112.5	1512.3
288.15 K, x1 = 0.7006	1122.49	1520
288.15 K, x1 = 0.7995	1132.99	1529.1
288.15 K, x1 = 0.9099	1145.62	1540
293.15 K, x1 = 0.053	991.791	1392.4
293.15 K, x1 = 0.1088	1016.45	1415.8
293.15 K, x1 = 0.2016	1048.37	1442.3
293.15 K, x1 = 0.3088	1073.64	1463.8
293.15 K, x1 = 0.4106	1089.74	1477.6
293.15 K, x1 = 0.5023	1100.22	1490.1
293.15 K, x1 = 0.5962	1109.27	1499.5
293.15 K, x1 = 0.7006	1119.44	1508.2
293.15 K, x1 = 0.7995	1130.02	1518.1
293.15 K, x1 = 0.9099	1142.38	1527.2
298.15 K, x1 = 0.053	987.817	1375.8
298.15 K, x1 = 0.1088	1012.38	1399.8
298.15 K, x1 = 0.2016	1044.22	1427.1
298.15 K, x1 = 0.3088	1069.47	1449.5
298.15 K, x1 = 0.4106	1085.86	1463.8
298.15 K, x1 = 0.5023	1096.66	1476.9
298.15 K, x1 = 0.5962	1106.01	1487.1
298.15 K, x1 = 0.7006	1116.37	1496.5
298.15 K, x1 = 0.7995	1126.8	1505.8
298.15 K, x1 = 0.9099	1138.92	1514.7
303.15 K, x1 = 0.053	983.383	1359.3
303.15 K, x1 = 0.1088	1008.21	1384
303.15 K, x1 = 0.2016	1040.16	1411.9
303.15 K, x1 = 0.3088	1065.51	1435.5
303.15 K, x1 = 0.4106	1081.93	1450.1
303.15 K, x1 = 0.5023	1092.85	1463.9
303.15 K, x1 = 0.5962	1102.49	1474.7
303.15 K, x1 = 0.7006	1113.08	1484.5
303.15 K, x1 = 0.7995	1123.59	1493.6
303.15 K, x1 = 0.9099	1135.86	1502.4
308.15 K, x1 = 0.053	979.101	1342.8
308.15 K, x1 = 0.1088	1004.1	1368.2
308.15 K, x1 = 0.2016	1036.07	1397
308.15 K, x1 = 0.3088	1061.47	1421.5
308.15 K, x1 = 0.4106	1077.94	1436.9
308.15 K, x1 = 0.5023	1089.12	1451
308.15 K, x1 = 0.5962	1098.81	1462.2
308.15 K, x1 = 0.7006	1109.56	1472.2
308.15 K, x1 = 0.7995	1120.09	1481.5
308.15 K, x1 = 0.9099	1132.31	1490.3
313.15 K, x1 = 0.053	974.997	1326.5
313.15 K, x1 = 0.1088	999.809	1352.3
313.15 K, x1 = 0.2016	1031.82	1382.1
313.15 K, x1 = 0.3088	1057.43	1407.4
313.15 K, x1 = 0.4106	1073.99	1424.1
313.15 K, x1 = 0.5023	1085.32	1438.4
313.15 K, x1 = 0.5962	1095.09	1449.7
313.15 K, x1 = 0.7006	1105.89	1460.1
313.15 K, x1 = 0.7995	1116.48	1469.5
313.15 K, x1 = 0.9099	1128.74	1478.5
318.15 K, x1 = 0.053	970.346	1309.8
318.15 K, x1 = 0.1088	995.598	1336.2
318.15 K, x1 = 0.2016	1027.87	1367.3
318.15 K, x1 = 0.3088	1053.41	1393.3
318.15 K, x1 = 0.4106	1070.02	1411.6
318.15 K, x1 = 0.5023	1080.99	1425.6
318.15 K, x1 = 0.5962	1090.77	1437.4
318.15 K, x1 = 0.7006	1101.5	1448.2
318.15 K, x1 = 0.7995	1112.28	1457.7
318.15 K, x1 = 0.9099	1124.84	1466.9

CCCCCCn1cc[n+](C)c1.[Br-] [3-hexyl-1-methyl-1H-imidazolium bromide] + COCCO
Conditions	mass density [kg/m3]	speed of sound [m/s]
288.15 K, x1 = 0.0541	1003.16	1406.2
288.15 K, x1 = 0.1114	1033.95	1427.1
288.15 K, x1 = 0.2063	1075.85	1455
288.15 K, x1 = 0.3163	1113.65	1481.2
288.15 K, x1 = 0.399	1136.61	1498.5
288.15 K, x1 = 0.5066	1160.88	1518.9
288.15 K, x1 = 0.5919	1177.15	1532.1
288.15 K, x1 = 0.7003	1194.68	1550.1
288.15 K, x1 = 0.8193	1210.88	1578.5
288.15 K, x1 = 0.905	1221.01	1610.1
293.15 K, x1 = 0.0541	998.827	1389.9
293.15 K, x1 = 0.1114	1029.8	1411.5
293.15 K, x1 = 0.2063	1071.89	1440.2
293.15 K, x1 = 0.3163	1109.92	1467.3
293.15 K, x1 = 0.399	1132.93	1485.4
293.15 K, x1 = 0.5066	1157.28	1506
293.15 K, x1 = 0.5919	1173.58	1519.1
293.15 K, x1 = 0.7003	1191.1	1535.7
293.15 K, x1 = 0.8193	1207.23	1560
293.15 K, x1 = 0.905	1217.37	1584.7
298.15 K, x1 = 0.0541	994.442	1373.6
298.15 K, x1 = 0.1114	1025.66	1395.9
298.15 K, x1 = 0.2063	1067.99	1425.3
298.15 K, x1 = 0.3163	1106.17	1454
298.15 K, x1 = 0.399	1129.03	1472.5
298.15 K, x1 = 0.5066	1153.7	1493.4
298.15 K, x1 = 0.5919	1169.99	1506.4
298.15 K, x1 = 0.7003	1187.69	1521.9
298.15 K, x1 = 0.8193	1203.66	1543.4
298.15 K, x1 = 0.905	1213.6	1563.8
303.15 K, x1 = 0.0541	990.104	1357.4
303.15 K, x1 = 0.1114	1021.6	1380.5
303.15 K, x1 = 0.2063	1064.1	1410.7
303.15 K, x1 = 0.3163	1102.4	1440.7
303.15 K, x1 = 0.399	1125.44	1459.6
303.15 K, x1 = 0.5066	1150.12	1481
303.15 K, x1 = 0.5919	1166.5	1494.1
303.15 K, x1 = 0.7003	1184.24	1509.1
303.15 K, x1 = 0.8193	1200.22	1528.5
303.15 K, x1 = 0.905	1210.1	1545.7
308.15 K, x1 = 0.0541	985.747	1341.1
308.15 K, x1 = 0.1114	1017.43	1365.1
308.15 K, x1 = 0.2063	1060.19	1396.3
308.15 K, x1 = 0.3163	1098.64	1427.5
308.15 K, x1 = 0.399	1121.85	1446.7
308.15 K, x1 = 0.5066	1146.54	1468.7
308.15 K, x1 = 0.5919	1162.92	1482
308.15 K, x1 = 0.7003	1180.7	1496.7
308.15 K, x1 = 0.8193	1196.79	1514.7
308.15 K, x1 = 0.905	1206.71	1529.7
313.15 K, x1 = 0.0541	981.397	1324.9
313.15 K, x1 = 0.1114	1013.1	1349.9
313.15 K, x1 = 0.2063	1056.1	1382.4
313.15 K, x1 = 0.3163	1094.88	1414.3
313.15 K, x1 = 0.399	1118.18	1433.9
313.15 K, x1 = 0.5066	1142.96	1456.5
313.15 K, x1 = 0.5919	1159.44	1470.3
313.15 K, x1 = 0.7003	1177.16	1484.8
313.15 K, x1 = 0.8193	1193.35	1501.8
313.15 K, x1 = 0.905	1203.34	1515.2
318.15 K, x1 = 0.0541	976.988	1308.7
318.15 K, x1 = 0.1114	1009.12	1335.8
318.15 K, x1 = 0.2063	1052.25	1369.4
318.15 K, x1 = 0.3163	1091.12	1401.5
318.15 K, x1 = 0.399	1114.51	1421.1
318.15 K, x1 = 0.5066	1139.37	1444.5
318.15 K, x1 = 0.5919	1155.95	1458.7
318.15 K, x1 = 0.7003	1173.69	1473.2
318.15 K, x1 = 0.8193	1189.89	1489.7
318.15 K, x1 = 0.905	1199.95	1501.9
